In paper PMC8191290, “Substrate specificities and reaction kinetics of the yeast oligosaccharyltransferase isoforms” (The Journal of Biological Chemistry, 2021):

Target: T1, OST3 complex (Saccharomyces cerevisiae, UniProt P39007)
T1 construct: were purified separately from strains expressing only one type of complex; made in house; host or cells: Saccharomyces cerevisiae, BY4742-derived strain ost6::LEU2MX6 OST4-1D4::kanMX6 YEp352-OST3
Assay: In vitro glycosylation assay, kinetic parameters for synthetic LLOs, OST3 complex
Format: biochemical
Text: Synthetic LLO substrates all have two GlcNAcs as the sugar moiety, followed by pyrophosphate and lipid moieties (−R) of variable stereochemistry and length, denoted by the carbon chain length. C10, (S)-citronellyl; C15, farnesyl; C20, (S)-citronellylneryl; C25, (S)-citronellylfarnesyl; C90, represents the natural yeast dolichol lipid tail structure where n = 15. Figure modified from Ramirez et al. 2017 ([42]). B, quantification of kinetic parameters for the synthetic LLOs. Reactions were performed with 0.1 μM purified OST3 complex, 25 μM peptide TAMRA-YANATS, and varying concentrations of the different synthetic LLOs. Glycopeptide product was measured by UPLC and turnover rates were determined from the linear initial phase of the reaction. The mean of three reactions is shown and the data were fitted by nonlinear regression according to the Michaelis–Menten formula (R^2 = 0.9842 (LLO C15), 0.9685 (LLO C20), 0.9261 (LLO C25)) using Prism. Error bars indicate standard deviations from the mean (n = 3).
Concentrations of reactive LLO analogs were determined by in vitro glycosylation (see below) by titrating varying amounts of LLO against a known amount of fluorescently labeled peptide. Concentrations of nonreactive LLO analogs were determined by in vitro glycosylation by titrating varying amounts of nonreactive LLO while using known amounts of both fluorescently labeled peptide and active LLO analog.
Reactions were performed in a total volume of 10 μl containing the specified amount of TAMRA-labeled peptide, synthetic LLO analog, 10 mM MnCl2, and purified OST after size-exclusion chromatography in purification buffer (50 mM Hepes, pH 7.5, 150 mM NaCl, 1 mM MgCl2, 1 mM MnCl2, 10% (v/v) glycerol, 0.03% (w/v) DDM, and 0.006% (w/v) CHS). The concentration of OST was calculated using the molecular weight of 280 kDa. The reaction mixture was preincubated at 30 °C for 5 min before adding the peptide to start the reaction that proceeded at 30 °C. Time points were taken such that the reaction was in the linear phase. […]
Samples were analyzed by reverse-phase chromatography using a UPLC Dionex UltiMate 3000 with an Accucore 150-C18 100 × 2.1 mm 2.6 μm column (Thermo Fisher Scientific). One microliter sample (2 pmol of peptide) was injected and measured by isocratic elution using a certain proportion of ACN (15% ACN for peptide TAMRA-DANYTK; 20% ACN for peptide TAMRA-YANATS) in 10 mM KPO4, pH 8.0 buffer so that the glycopeptide and peptide are fully separated and elute within 3 min at a constant flow rate of 0.7 ml/min, with a column temperature of 45 °C. The peptide and glycopeptide were detected through TAMRA fluorescence (excitation wavelength: 546 nm; emission wavelength: 579 nm).
The UPLC profiles were analyzed by integrating the peaks corresponding to the glycopeptide and peptide using Chromeleon 7 (Dionex) and calculating the amount of glycopeptide formed using the following equation, as previously described ([43]): [GP]=PeakareaGP/PeakareaP+PeakareaGP×[P]
[GP] is the concentration of glycopeptide, Peak areaGP/P is the area under the curves measured for the glycopeptide or peptide, respectively, and [P] is the concentration of peptide at the start of the reaction. […] Unless specified otherwise, turnover rates were determined from the initial rates of reaction by taking into account the enzyme concentration in the reaction. […]

CC(=O)N[C@H]1[C@@H](OP(=O)(O)OP(=O)(O)OC/C=C(\C)CC/C=C(\C)CCC=C(C)C)O[C@H](CO)[C@@H](O[C@@H]2O[C@H](CO)[C@@H](O)[C@H](O)[C@H]2NC(C)=O)[C@@H]1O [LLO C15]
kcat/KM (0.1 μM purified OST3 complex, 25 μM TAMRA-YANATS): 0.02 min^-1 μM^−s1 | kcat (apparent) (0.1 μM purified OST3 complex, 25 μM TAMRA-YANATS, varying LLO (C15 5–200, C20 5–150, C25 2–50 μM), 30 °C, n = 3): 0.0283 ± 0.0017 s⁻¹ | Km (0.1 μM purified OST3 complex, 25 μM TAMRA-YANATS, varying LLO (C15 5–200, C20 5–150, C25 2–50 μM), 30 °C, n = 3, read-out: KM (apparent)): 67.9 ± 6.7 µM | apparent LLO affinity, in words (OST3 complex, from apparent KM): bound much less efficiently
